Assay results reported in patent US20190307843A1, “SINGLE DOSE METHODS FOR PREVENTING AND TREATING FUNGAL INFECTIONS” (Cidara Therapeutics, Inc., priority 2016, published 2019).
Converted amounts (≈) assume the structure as drawn. Like-named read-outs stand apart in the source and are kept apart here.

Tested on: Candida auris strains
Assay: Candida auris antifungal susceptibility testing (CLSI M27-A3), 38 strains
Format: cell-based
Conditions: for MIC: Candidozyma auris, read-out: MIC

MIC (24 h, strain 1 VPCI 669/P/12, 24 h): 0.25 µg/mL (≈ 0.229 µM) | MIC (24 h, strain 2 VCPI 671/P/12, 24 h): 0.25 µg/mL (≈ 0.229 µM) | MIC (24 h, strain 3 VCPI 674/P/12, 24 h): 0.25 µg/mL (≈ 0.229 µM) | MIC (24 h, strain 4 VCPI 683/P/12, 24 h): 0.25 µg/mL (≈ 0.229 µM) | MIC (24 h, strain 5 VCPI 692/P/12, 24 h): 0.25 µg/mL (≈ 0.229 µM) | MIC (24 h, strain 6 VCPI 712/P/12, 24 h): 0.25 µg/mL (≈ 0.229 µM) | MIC (24 h, strain 7 VCPI 471/P/13, 24 h): 1 µg/mL (≈ 0.915 µM) | MIC (24 h, strain 8 VCPI 475/P/13, 24 h): 0.25 µg/mL (≈ 0.229 µM) | MIC (24 h, strain 9 VCPI 478/P/13, 24 h): 0.25 µg/mL (≈ 0.229 µM) | MIC (24 h, strain 10 VCPI 479/P/13, 24 h): 0.5 µg/mL (≈ 0.457 µM) | MIC (24 h, strain 11 VCPI 480/P/13, 24 h): 0.5 µg/mL (≈ 0.457 µM) | MIC (24 h, strain 12 VCPI 482/P/13, 24 h): 0.5 µg/mL (≈ 0.457 µM) | MIC (24 h, strain 13 VCPI 483/P/13, 24 h): 0.25 µg/mL (≈ 0.229 µM) | MIC (24 h, strain 14 VCPI 1130/P/13, 24 h): 0.5 µg/mL (≈ 0.457 µM) | MIC (24 h, strain 15 VCPI 1132/P/13, 24 h): 0.5 µg/mL (≈ 0.457 µM) | MIC (24 h, strain 16 VCPI 1133/P/13, 24 h): 16 µg/mL (≈ 14.6 µM) | MIC (24 h, strain 17 VCPI 105/P/14, 24 h): 0.5 µg/mL (≈ 0.457 µM) | MIC (24 h, strain 18 VCPI 107/P/14, 24 h): 0.25 µg/mL (≈ 0.229 µM) | MIC (24 h, strain 19 VCPI 510/P/14, 24 h): 0.5 µg/mL (≈ 0.457 µM) | MIC (24 h, strain 20 VCPI 511/P/14, 24 h): 0.5 µg/mL (≈ 0.457 µM) | MIC (24 h, strain 21 VCPI 512/P/14, 24 h): 0.5 µg/mL (≈ 0.457 µM) | MIC (24 h, strain 22 VCPI 513/P/14, 24 h): 1 µg/mL (≈ 0.915 µM) | MIC (24 h, strain 23 VCPI 514/P/14, 24 h): 0.5 µg/mL (≈ 0.457 µM) | MIC (24 h, strain 24 VCPI 250/P/14, 24 h): 0.5 µg/mL (≈ 0.457 µM) | MIC (24 h, strain 25 VCPI 265/P/14, 24 h): 8 µg/mL (≈ 7.32 µM) | MIC (24 h, strain 26 VCPI 266/P/14, 24 h): 0.125 µg/mL (≈ 0.114 µM) | MIC (24 h, strain 27 VCPI 462/P/14, 24 h): 8 µg/mL (≈ 7.32 µM) | MIC (24 h, strain 28 VCPI 463/P/14, 24 h): 0.5 µg/mL (≈ 0.457 µM) | MIC (24 h, strain 29 VCPI 467/P/14, 24 h): 0.125 µg/mL (≈ 0.114 µM) | MIC (24 h, strain 30 VCPI 471a/P/14, 24 h): 4 µg/mL (≈ 3.66 µM) | MIC (24 h, strain 31 VCPI 478/P/14, 24 h): 1 µg/mL (≈ 0.915 µM) | MIC (24 h, strain 32 VCPI 518/P/14, 24 h): 0.5 µg/mL (≈ 0.457 µM) | MIC (24 h, strain 33 VCPI 550/P/14, 24 h): 0.125 µg/mL (≈ 0.114 µM) | MIC (24 h, strain 34 VCPI 714/P/14, 24 h): 0.5 µg/mL (≈ 0.457 µM) | MIC (24 h, strain 35 VCPI 717/P/14, 24 h): 0.5 µg/mL (≈ 0.457 µM) | MIC (24 h, strain 36 VCPI 1060/P/14, 24 h): 0.5 µg/mL (≈ 0.457 µM) | MIC (24 h, strain 37 VCPI 74/P/15, 24 h): 0.5 µg/mL (≈ 0.457 µM) | MIC (24 h, strain 38 VCPI 213/P/15, 24 h): 0.5 µg/mL (≈ 0.457 µM) | MIC (48 h, strain 1 VPCI 669/P/12, 48 h): > 16 µg/mL | MIC (48 h, strain 2 VCPI 671/P/12, 48 h): > 16 µg/mL | MIC (48 h, strain 3 VCPI 674/P/12, 48 h): 0.25 µg/mL (≈ 0.229 µM) | MIC (48 h, strain 4 VCPI 683/P/12, 48 h): > 16 µg/mL | MIC (48 h, strain 5 VCPI 692/P/12, 48 h): > 16 µg/mL | MIC (48 h, strain 6 VCPI 712/P/12, 48 h): 0.25 µg/mL (≈ 0.229 µM) | MIC (48 h, strain 7 VCPI 471/P/13, 48 h): > 16 µg/mL | MIC (48 h, strain 8 VCPI 475/P/13, 48 h): 0.25 µg/mL (≈ 0.229 µM) | MIC (48 h, strain 9 VCPI 478/P/13, 48 h): > 16 µg/mL | MIC (48 h, strain 10 VCPI 479/P/13, 48 h): > 16 µg/mL | MIC (48 h, strain 11 VCPI 480/P/13, 48 h): > 16 µg/mL | MIC (48 h, strain 12 VCPI 482/P/13, 48 h): > 16 µg/mL | MIC (48 h, strain 13 VCPI 483/P/13, 48 h): 0.25 µg/mL (≈ 0.229 µM) | MIC (48 h, strain 14 VCPI 1130/P/13, 48 h): 0.5 µg/mL (≈ 0.457 µM) | MIC (48 h, strain 15 VCPI 1132/P/13, 48 h): 0.5 µg/mL (≈ 0.457 µM) | MIC (48 h, strain 16 VCPI 1133/P/13, 48 h): > 16 µg/mL | MIC (48 h, strain 17 VCPI 105/P/14, 48 h): 1 µg/mL (≈ 0.915 µM) | MIC (48 h, strain 18 VCPI 107/P/14, 48 h): 0.5 µg/mL (≈ 0.457 µM) | MIC (48 h, strain 19 VCPI 510/P/14, 48 h): > 16 µg/mL | MIC (48 h, strain 20 VCPI 511/P/14, 48 h): > 16 µg/mL | MIC (48 h, strain 21 VCPI 512/P/14, 48 h): 1 µg/mL (≈ 0.915 µM) | MIC (48 h, strain 22 VCPI 513/P/14, 48 h): > 16 µg/mL | MIC (48 h, strain 23 VCPI 514/P/14, 48 h): 1 µg/mL (≈ 0.915 µM) | MIC (48 h, strain 24 VCPI 250/P/14, 48 h): 0.5 µg/mL (≈ 0.457 µM) | MIC (48 h, strain 25 VCPI 265/P/14, 48 h): > 16 µg/mL | MIC (48 h, strain 26 VCPI 266/P/14, 48 h): 0.125 µg/mL (≈ 0.114 µM) | MIC (48 h, strain 27 VCPI 462/P/14, 48 h): > 16 µg/mL | MIC (48 h, strain 28 VCPI 463/P/14, 48 h): 0.5 µg/mL (≈ 0.457 µM) | MIC (48 h, strain 29 VCPI 467/P/14, 48 h): 0.5 µg/mL (≈ 0.457 µM) | MIC (48 h, strain 30 VCPI 471a/P/14, 48 h): > 16 µg/mL | MIC (48 h, strain 31 VCPI 478/P/14, 48 h): 2 µg/mL (≈ 1.83 µM) | MIC (48 h, strain 32 VCPI 518/P/14, 48 h): 16 µg/mL (≈ 14.6 µM) | MIC (48 h, strain 33 VCPI 550/P/14, 48 h): 0.25 µg/mL (≈ 0.229 µM) | MIC (48 h, strain 34 VCPI 714/P/14, 48 h): > 16 µg/mL | MIC (48 h, strain 35 VCPI 717/P/14, 48 h): > 16 µg/mL | MIC (48 h, strain 36 VCPI 1060/P/14, 48 h): > 16 µg/mL | MIC (48 h, strain 37 VCPI 74/P/15, 48 h): > 16 µg/mL | MIC (48 h, strain 38 VCPI 213/P/15, 48 h): > 16 µg/mL
Compound: CC[C@H](C)C[C@H](C)CCCCCCCCC(=O)N[C@H]1C[C@@H](O)[C@@H](NCCN)NC(=O)[C@@H]2[C@@H](O)CCN2C(=O)[C@H]([C@H](O)CCN)NC(=O)[C@H]([C@H](O)[C@@H](O)c2ccc(O)cc2)NC(=O)[C@@H]2C[C@@H](O)CN2C(=O)[C@H]([C@@H](C)O)NC1=O [CAS, caspofungin]
number of resistant isolates (of 38 C. auris isolates): 4
